{"source": "patent US9476099B2", "about": "(TRUSTEES OF DARTMOUTH COLLEGE, priority 2012, dated 2016)", "test_system": "gene promoters in NT2/D1-R1 control and DNMT3B knockdown cells", "assay": "Genome-wide promoter methylation analysis, HumanMethylation27 BeadChip (Table 15)", "format": "cell-based, human", "settings": "sh-ctrl + 5aza", "protocol": "DNA methylation analysis was performed in samples in triplicate using the […] […] assay with the HumanMethylation27 BeadChip ([…]) and the BeadChip was scanned on the BeadArray Reader ([…]), according to the manufacturer's instructions. Raw data was normalized and analyzed with Genome Studio software ([…]). The HumanMethylation27 BeadChip assays 27,578 CpGs covering more than 14,000 genes, mostly from promoter regions. […] Hierarchical clustering was performed as stated above. HumanMethylation27 BeadChip data and gene expression microarray data were submitted to NCBI GEO."}
{"smiles": "Nc1ncn([C@H]2C[C@H](O)[C@@H](CO)O2)c(=O)n1", "note": "[5aza]", "values": [{"measurement": "ABCC1 cg20158248 promoter methylation Mean", "result": 0.480}, {"measurement": "ACP1 cg27226618 promoter methylation Mean", "result": 0.786}, {"measurement": "ADCY4 cg16761581 promoter methylation Mean", "result": 0.609}, {"measurement": "ADRA2A cg26926521 promoter methylation Mean", "result": 0.939}, {"measurement": "ALDH1A3 cg19224278 promoter methylation Mean", "result": 0.443}, {"measurement": "ALKBH4 cg07404418 promoter methylation Mean", "result": 0.458}, {"measurement": "ALX4 cg04549333 promoter methylation Mean", "result": 1.136}, {"measurement": "ALX4 cg04970352 promoter methylation Mean", "result": 0.964}, {"measurement": "ALX4 cg19358442 promoter methylation Mean", "result": 1.126}, {"measurement": "ANKRD13C cg19342782 promoter methylation Mean", "result": 0.544}, {"measurement": "ANKRD45 cg15883716 promoter methylation Mean", "result": 1.017}, {"measurement": "APC cg16970232 promoter methylation Mean", "result": 0.424}, {"measurement": "BLOC1S2 cg26610808 promoter methylation Mean", "result": 0.575}, {"measurement": "BTBD5 cg00660989 promoter methylation Mean", "result": 0.347}, {"measurement": "BTNL8 cg24024214 promoter methylation Mean", "result": 1.068}, {"measurement": "C1QL1 cg13818573 promoter methylation Mean", "result": 0.460}, {"measurement": "C1orf188 cg15731815 promoter methylation Mean", "result": 0.541}, {"measurement": "C10orf107 cg16063112 promoter methylation Mean", "result": 0.354}, {"measurement": "C14orf173 cg24404909 promoter methylation Mean", "result": 0.379}, {"measurement": "C16orf60 cg17858663 promoter methylation Mean", "result": 0.245}, {"measurement": "C19orf4 cg07379574 promoter methylation Mean", "result": 1.078}, {"measurement": "C19orf22 cg18022193 promoter methylation Mean", "result": 0.288}, {"measurement": "CAMK1G cg27337148 promoter methylation Mean", "result": 1.021}, {"measurement": "CD58 cg21039631 promoter methylation Mean", "result": 0.251}, {"measurement": "CDKN2B cg04675937 promoter methylation Mean", "result": 0.256}, {"measurement": "CDKN2B cg08390209 promoter methylation Mean", "result": 0.280}, {"measurement": "CDX1 cg15452204 promoter methylation Mean", "result": 0.595}, {"measurement": "CEACAM4 cg10237469 promoter methylation Mean", "result": 0.718}, {"measurement": "CEACAM7 cg19623751 promoter methylation Mean", "result": 0.886}, {"measurement": "CGI-38 cg13067215 promoter methylation Mean", "result": 0.513}, {"measurement": "CHD5 cg00282347 promoter methylation Mean", "result": 1.005}, {"measurement": "CHMP2A cg14042128 promoter methylation Mean", "result": 0.541}, {"measurement": "COL11A1 cg12884406 promoter methylation Mean", "result": 0.415}, {"measurement": "COPS7B cg05422352 promoter methylation Mean", "result": 0.579}, {"measurement": "CRSP7 cg24459023 promoter methylation Mean", "result": 0.301}, {"measurement": "CSPG3 cg06952310 promoter methylation Mean", "result": 0.480}, {"measurement": "CSTF2T cg06712026 promoter methylation Mean", "result": 0.431}, {"measurement": "CTAGE1 cg02847216 promoter methylation Mean", "result": 0.955}, {"measurement": "CUL3 cg09509863 promoter methylation Mean", "result": 0.411}, {"measurement": "CYP4F12 cg25813714 promoter methylation Mean", "result": 0.959}, {"measurement": "DCTD cg14892066 promoter methylation Mean", "result": 0.243}, {"measurement": "DDEF2 cg22190705 promoter methylation Mean", "result": 0.329}, {"measurement": "DEFB118 cg03014957 promoter methylation Mean", "result": 0.690}, {"measurement": "DNASE2 cg07955356 promoter methylation Mean", "result": 0.275}, {"measurement": "DPH1 cg11516377 promoter methylation Mean", "result": 0.465}, {"measurement": "DYRK1B cg18851831 promoter methylation Mean", "result": 1.262}, {"measurement": "EIF2B3 cg16604218 promoter methylation Mean", "result": 0.543}, {"measurement": "ELSPBP1 cg19404979 promoter methylation Mean", "result": 0.655}, {"measurement": "ENOSF1 cg16112050 promoter methylation Mean", "result": 1.028}, {"measurement": "EPN3 cg24006361 promoter methylation Mean", "result": 1.019}, {"measurement": "EREG cg19308222 promoter methylation Mean", "result": 0.356}, {"measurement": "FAM111B cg13864937 promoter methylation Mean", "result": 0.508}, {"measurement": "FLJ10726 cg14145762 promoter methylation Mean", "result": 0.436}, {"measurement": "FLJ11200 cg09001953 promoter methylation Mean", "result": 0.482}, {"measurement": "FLJ23514 cg16404106 promoter methylation Mean", "result": 0.628}, {"measurement": "FLRT3 cg23127998 promoter methylation Mean", "result": 0.397}, {"measurement": "FLT3LG cg01667384 promoter methylation Mean", "result": 0.249}, {"measurement": "FXYD7 cg22392666 promoter methylation Mean", "result": 1.028}, {"measurement": "G10 cg02798801 promoter methylation Mean", "result": 0.608}, {"measurement": "GABRB2 cg16509658 promoter methylation Mean", "result": 0.219}, {"measurement": "GALNT4 cg16606638 promoter methylation Mean", "result": 0.265}, {"measurement": "GAS8 cg03634997 promoter methylation Mean", "result": 1.082}, {"measurement": "GBX2 cg23095584 promoter methylation Mean", "result": 0.468}, {"measurement": "GNAS cg27661264 promoter methylation Mean", "result": 0.565}, {"measurement": "GRB10 cg26163537 promoter methylation Mean", "result": 0.312}, {"measurement": "GUP1 cg24938727 promoter methylation Mean", "result": 0.640}, {"measurement": "HACE1 cg23047681 promoter methylation Mean", "result": 0.204}, {"measurement": "HGF cg06745740 promoter methylation Mean", "result": 0.594}, {"measurement": "HNRNPG-T cg22062068 promoter methylation Mean", "result": 0.977}, {"measurement": "HOXB4 cg25145670 promoter methylation Mean", "result": 0.488}, {"measurement": "HRASLS cg08376864 promoter methylation Mean", "result": 0.853}, {"measurement": "HYPK cg00480356 promoter methylation Mean", "result": 0.818}, {"measurement": "ICAM1 cg08607082 promoter methylation Mean", "result": 0.244}, {"measurement": "IFI16 cg07463059 promoter methylation Mean", "result": 0.582}, {"measurement": "IFI44 cg07107453 promoter methylation Mean", "result": 0.513}, {"measurement": "IFNA2 cg13235447 promoter methylation Mean", "result": 0.697}, {"measurement": "IGF2AS cg20792294 promoter methylation Mean", "result": 0.323}, {"measurement": "IGFBP5 cg19008649 promoter methylation Mean", "result": 0.370}, {"measurement": "IGSF9 cg19111262 promoter methylation Mean", "result": 0.826}, {"measurement": "IHH cg17178336 promoter methylation Mean", "result": 0.709}, {"measurement": "IL2RG cg01361446 promoter methylation Mean", "result": 1.103}, {"measurement": "IL18 cg11304234 promoter methylation Mean", "result": 0.646}, {"measurement": "INPP5B cg10784030 promoter methylation Mean", "result": 0.366}, {"measurement": "ITGB3BP cg18464559 promoter methylation Mean", "result": 0.168}, {"measurement": "KA21 cg23776012 promoter methylation Mean", "result": 0.641}, {"measurement": "KCNA3 cg03483626 promoter methylation Mean", "result": 0.326}, {"measurement": "KCNAB3 cg14918082 promoter methylation Mean", "result": 0.852}, {"measurement": "KCNB2 cg11754206 promoter methylation Mean", "result": 0.551}, {"measurement": "KCNK10 cg17671157 promoter methylation Mean", "result": 1.059}, {"measurement": "KLK7 cg19953406 promoter methylation Mean", "result": 0.983}, {"measurement": "LAMB1 cg10064162 promoter methylation Mean", "result": 0.426}, {"measurement": "LDHD cg24429836 promoter methylation Mean", "result": 0.760}, {"measurement": "LIG4 cg08216792 promoter methylation Mean", "result": 0.356}, {"measurement": "LYNX1 cg24046110 promoter methylation Mean", "result": 0.430}, {"measurement": "MC3R cg19226099 promoter methylation Mean", "result": 1.057}, {"measurement": "MGC26856 cg07684809 promoter methylation Mean", "result": 0.489}, {"measurement": "MLNR cg02620013 promoter methylation Mean", "result": 0.755}, {"measurement": "MPHOSPH6 cg16119274 promoter methylation Mean", "result": 0.444}, {"measurement": "MSX1 cg03199651 promoter methylation Mean", "result": 0.288}, {"measurement": "MYOD1 cg24322623 promoter methylation Mean", "result": 0.931}, {"measurement": "NCKIPSD cg04244987 promoter methylation Mean", "result": 0.392}, {"measurement": "NDP cg11614809 promoter methylation Mean", "result": 0.756}, {"measurement": "NEFH cg16042149 promoter methylation Mean", "result": 1.041}, {"measurement": "NEIL2 cg14329976 promoter methylation Mean", "result": 0.360}, {"measurement": "NME5 cg13707560 promoter methylation Mean", "result": 1.225}, {"measurement": "NME5 cg25507001 promoter methylation Mean", "result": 0.889}, {"measurement": "NOC3L cg07270175 promoter methylation Mean", "result": 0.614}, {"measurement": "NOX4 cg17063929 promoter methylation Mean", "result": 0.483}, {"measurement": "NPAS1 cg09628601 promoter methylation Mean", "result": 0.553}, {"measurement": "NRXN1 cg10917619 promoter methylation Mean", "result": 0.867}, {"measurement": "OR1N1 cg14598387 promoter methylation Mean", "result": 0.606}, {"measurement": "OR10J1 cg15700197 promoter methylation Mean", "result": 0.679}, {"measurement": "PACS1 cg01663295 promoter methylation Mean", "result": 0.625}, {"measurement": "PCDHB13 cg14592099 promoter methylation Mean", "result": 0.747}, {"measurement": "PCDHB13 cg24435562 promoter methylation Mean", "result": 0.441}, {"measurement": "PCDHGA12 cg11647681 promoter methylation Mean", "result": 0.936}, {"measurement": "PCGF5 cg17001035 promoter methylation Mean", "result": 0.893}, {"measurement": "PEPD cg06546607 promoter methylation Mean", "result": 0.266}, {"measurement": "PEX5L cg02430692 promoter methylation Mean", "result": 0.511}, {"measurement": "PI3 cg02442161 promoter methylation Mean", "result": 0.857}, {"measurement": "PIGL cg05310071 promoter methylation Mean", "result": 0.351}, {"measurement": "POU3F3 cg20291049 promoter methylation Mean", "result": 0.387}, {"measurement": "POU4F2 cg24199834 promoter methylation Mean", "result": 0.287}, {"measurement": "PTCH2 cg15329642 promoter methylation Mean", "result": 0.789}, {"measurement": "PTPN5 cg17233601 promoter methylation Mean", "result": 0.801}, {"measurement": "RASGEF1A cg07871503 promoter methylation Mean", "result": 0.945}, {"measurement": "RBPSUHL cg21835643 promoter methylation Mean", "result": 1.018}, {"measurement": "REM1 cg12153542 promoter methylation Mean", "result": 0.664}, {"measurement": "REM1 cg26299767 promoter methylation Mean", "result": 0.727}, {"measurement": "RLN3R1 cg12238343 promoter methylation Mean", "result": 0.732}, {"measurement": "RPL39L cg07441272 promoter methylation Mean", "result": 0.691}, {"measurement": "RRM2B cg07125123 promoter methylation Mean", "result": 0.370}, {"measurement": "RYR1 cg05471297 promoter methylation Mean", "result": 0.480}, {"measurement": "S100A12 cg02813121 promoter methylation Mean", "result": 0.941}, {"measurement": "SCUBE2 cg01081263 promoter methylation Mean", "result": 0.693}, {"measurement": "SCUBE2 cg19237879 promoter methylation Mean", "result": 0.670}, {"measurement": "SEMA3E cg08274234 promoter methylation Mean", "result": 0.306}, {"measurement": "SEMA6C cg01958916 promoter methylation Mean", "result": 0.267}, {"measurement": "SEPN1 cg21187265 promoter methylation Mean", "result": 0.387}]}
